Assay results reported in patent publication US9845512B2, “Screening assay employing Dex and GDF8” (RIGEL PHARMACEUTICALS, INC., priority 2010, dated 2017).

Test system: endogenous MuRF1
Assay: Endogenous MuRF1 expression in HepG2 cells by Taqman RT-PCR
Format: cell-based, human
Protocol: Cultured HepG2 cells were exposed to 1 μM dexamethasone, 10 μM dexamethasone, 100 ng/ml GDF8, 100 ng/ml TGFβ1, and 10 μM dexamethasone+100 ng/ml GDF8, and expression of endogenous MuRF1 was evaluated by RT-PCR using Taqman RT-PCR assay. […] 10 μM dexamethasone induced expression of endogenous MuRF1 2.5× over the no treatment control, and 100 ng/ml GDF8 induced expression of endogenous MuRF1 1.8× over the no treatment control.
MuRF1 induction is observable at four hours of treatment, as compared to controls.

Molecule: C[C@@H]1C[C@H]2[C@@H]3CCC4=CC(=O)C=C[C@]4(C)[C@@]3(F)[C@@H](O)C[C@]2(C)[C@@]1(O)C(=O)CO [dexamethasone]
- induction of endogenous MuRF1 expression over the no treatment control (10 μM dexamethasone alone): 2.5 ×

Molecule: GDF8: secreted TGFβ protein family member that inhibits muscle differentiation and growth; ligand for the myostatin receptor
- induction of endogenous MuRF1 expression over the no treatment control (100 ng/ml GDF8 alone): 1.8 ×
